Test [1] addresses T1, Lac1 (Saccharomyces cerevisiae, UniProt P28496).
T1 construct: native full-length protein in cryo-milled lysate of Δlag1Δsur2 yeast; with Ceramide synthase subunit LIP1
T1 sequence (P28496 2-418): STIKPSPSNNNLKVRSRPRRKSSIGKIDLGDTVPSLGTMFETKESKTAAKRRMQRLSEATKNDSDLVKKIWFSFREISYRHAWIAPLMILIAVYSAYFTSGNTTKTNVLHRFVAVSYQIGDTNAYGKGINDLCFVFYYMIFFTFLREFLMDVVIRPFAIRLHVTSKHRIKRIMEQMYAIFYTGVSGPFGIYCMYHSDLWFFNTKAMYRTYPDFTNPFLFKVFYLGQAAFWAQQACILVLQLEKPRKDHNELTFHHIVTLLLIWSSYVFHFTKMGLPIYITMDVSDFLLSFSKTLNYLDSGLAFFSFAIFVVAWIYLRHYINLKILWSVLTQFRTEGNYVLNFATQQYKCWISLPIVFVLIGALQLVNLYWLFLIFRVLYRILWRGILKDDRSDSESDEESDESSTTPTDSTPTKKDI
T1 sequence (Q03579 1-150 partner): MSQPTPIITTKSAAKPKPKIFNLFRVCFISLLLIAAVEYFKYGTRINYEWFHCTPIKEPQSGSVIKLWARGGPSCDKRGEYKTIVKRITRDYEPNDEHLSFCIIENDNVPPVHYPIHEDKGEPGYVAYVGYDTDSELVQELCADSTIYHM
Description: in vitro CerS assay, TLC fluorescence of NBD-ceramide. Format: cell-free. As to conditions: labelled compound; 50 μM C26-CoA, 5 μM human ACBP1, 20 μM defatted BSA, 2 mM MgCl2, pH 7.2, 37°C; Δlag1Δsur2 lysate; read-out: apparent Km. An excerpt: in vitro CerS assay, TLC fluorescence of NBD-ceramide on Lac1 | Lag1 (Δlac1Δsur2) has a higher affinity towards PHS than Lac1 (Δlag1Δsur2) | We next determined the Km of Lag1 or Lac1 towards DHS and PHS

The target of test [2] is T2, Lag1 (Saccharomyces cerevisiae, UniProt P38703).
T2 construct: native full-length protein in cryo-milled lysate of Δlac1Δsur2 yeast; with Ceramide synthase subunit LIP1
T2 sequence (P38703 1-411): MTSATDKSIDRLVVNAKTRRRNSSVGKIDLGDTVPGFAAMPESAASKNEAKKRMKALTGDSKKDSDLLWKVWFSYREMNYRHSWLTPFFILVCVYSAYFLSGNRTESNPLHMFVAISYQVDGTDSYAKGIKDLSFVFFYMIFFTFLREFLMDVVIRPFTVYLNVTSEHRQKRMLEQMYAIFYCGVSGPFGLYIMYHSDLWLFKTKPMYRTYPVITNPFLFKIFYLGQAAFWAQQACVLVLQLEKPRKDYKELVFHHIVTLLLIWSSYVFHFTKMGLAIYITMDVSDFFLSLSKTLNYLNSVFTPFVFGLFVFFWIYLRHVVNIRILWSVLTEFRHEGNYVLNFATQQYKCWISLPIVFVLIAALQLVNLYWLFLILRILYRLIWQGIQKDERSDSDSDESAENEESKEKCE
T2 sequence (Q03579 1-150 partner): T1 sequence (Q03579 1-150 partner)
Described as above. Format: cell-free (lysate). As to conditions: labelled compound; 50 μM C26-CoA, 5 μM human ACBP1, 20 μM defatted BSA, 2 mM MgCl2, pH 7.2, 37°C; Δlac1Δsur2 lysate; read-out: apparent Km. An excerpt:
in vitro CerS assay, TLC fluorescence of NBD-ceramide on Lag1 | Lag1 (Δlac1Δsur2) has a higher affinity towards PHS than Lac1 (Δlag1Δsur2) | We next determined the Km of Lag1 or Lac1 towards DHS and PHS

As for NBD–DHS, the results for the Km in test [1] and in test [2] were 165 ± 56 µM and 132 ± 29 µM, respectively.
For NBD–PHS, in that order: 128 ± 52.5 µM and 30.5 ± 6.6 µM.

The values are drawn from article PMC6602303, “Yeast ceramide synthases, Lag1 and Lac1, have distinct substrate specificity” (Journal of Cell Science, 2019).
